Data from patent US11384060B2, “Amide compounds and use thereof” (ALPHALA CO., LTD., priority 2017, dated 2022).

Legend:
[1] = molecular target: T1, glucagon receptor (GCGR) (Homo sapiens, UniProt P47871); experiment: I125-glucagon binding assay (competition, GCGR membrane fractions); details: competition with I125-glucagon 0.0625 nM, membrane fractions of GCGR overexpressed CHO-K1 cells
T1 construct: expressed in transfected cells; host or cells: CHO-K1 cells overexpressing GCGR (membrane fractions)
Summary of the method: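 Membranes from CHO-K1 cells overexpressing GCGR, 7.5 μg/well in 50 mM Tris pH 7.4 with 0.5% BSA, were preincubated 5 min with serially diluted compounds, then given 0.0625 nM final I^125-glucagon for 30 min at 25° C. Bound label was filtered on PEI-coated GF/B and counted; IC50 by non-linear regression.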

[2] = molecular target: T2, glucagon receptor (GCGR) overexpressed CHO-K1 cells or human primary hepatocytes (Homo sapiens, UniProt P47871); experiment: Glucagon cAMP inhibition assay (Cisbio cAMP Dynamic 2 HTRF); type: cell-based; details: inhibition of glucagon (EC50 concentration) induced cAMP production
T2 construct: expressed in transfected cells; host or cells: GCGR overexpressed CHO-K1 cells or human primary hepatocytes (endogenous receptor)
Summary of the method: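 GCGR-overexpressing CHO-K1 cells or human primary hepatocytes in HBSS with 0.1% BSA and 800 nM IBMX, pre-incubated 30 min with serially diluted compounds (1% DMSO final), then stimulated 30 min at room temperature with glucagon at its EC50. cAMP measured by HTRF after 60 min lysis; IC50 by non-linear regression.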

T2 sequence (P47871 26-477): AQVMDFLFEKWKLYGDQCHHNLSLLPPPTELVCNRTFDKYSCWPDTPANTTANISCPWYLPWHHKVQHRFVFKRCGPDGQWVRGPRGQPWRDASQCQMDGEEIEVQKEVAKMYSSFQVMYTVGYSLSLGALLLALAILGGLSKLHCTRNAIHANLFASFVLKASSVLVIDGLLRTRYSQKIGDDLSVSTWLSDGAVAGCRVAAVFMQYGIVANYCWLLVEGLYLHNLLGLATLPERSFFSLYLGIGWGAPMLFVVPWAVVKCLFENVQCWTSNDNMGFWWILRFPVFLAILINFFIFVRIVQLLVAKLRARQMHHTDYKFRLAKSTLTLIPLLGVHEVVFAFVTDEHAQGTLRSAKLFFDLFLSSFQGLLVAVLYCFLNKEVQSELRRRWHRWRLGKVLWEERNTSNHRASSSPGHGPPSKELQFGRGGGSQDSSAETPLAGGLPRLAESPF
T1 sequence (P47871 26-477): as above

Row | IC50 [1] | IC50 cAMP [2] | SMILES
1 | 90 nM | 241.4 nM | CC[C@H](C)[C@@H](COc1cc(C)c(-c2ccc(C(F)(F)F)cc2)c(C)c1)Nc1ccc(C(=O)NCCC(=O)O)cc1 [Compound 2-10, 3-(4-(((2S,3S)-1-((2,6-dimethyl-4′-(trifluoromethyl)-[1,1′-biphenyl]-4-yl)oxy)-3-methylpentan-2-yl)amino)benzamido)propanoic Acid]
2 | 872 nM | 277.2 nM | Cc1cc(OC[C@@H](Nc2ccc(C(=O)NCCC(=O)O)cc2)C(C)C)cc(C)c1-c1ccc(C(F)(F)F)cc1Cl [Compound 2-11, (S)-3-(4-((1-((2′-chloro-2,6-dimethyl-4′-(trifluoromethyl)-[1,1′-biphenyl]-4-yl)oxy)-3-methylbutan-2-yl)amino)benzamido)propanoic Acid]
3 | 108 nM | 62.8 nM | CCCC[C@@H](COc1cc(C)c(-c2cc3ccccc3o2)c(C)c1)Nc1ccc(C(=O)NCCC(=O)O)cc1 [Compound 2-12, (S)-3-(4-((1-(4-(benzofuran-2-yl)-3,5-dimethylphenoxy)hexan-2-yl)amino)benzamido)propanoic Acid]
4 | 167 nM | 148.5 nM | CCCC[C@@H](COc1cc(C)c(-c2cc3ccccc3o2)c(C)c1)Nc1ccc(C(=O)NCc2nnn[nH]2)cc1 [Compound 2-13, (S)—N-((1H-tetrazol-5-yl)methyl)-4-((1-(4-(benzofuran-2-yl)-3,5-dimethylphenoxy)hexan-2-yl)amino)benzamide]
5 | 217 nM | 1822 nM | CC[C@H](C)[C@@H](COc1ccc(-c2cc3ccccc3o2)c(Cl)c1)Nc1ccc(C(=O)NCc2nnn[nH]2)cc1 [Compound 3-1, N-((1H-tetrazol-5-yl)methyl)-4-(((2S,3S)-1-(4-(benzofuran-2-yl)-3-chlorophenoxy)-3-methylpentan-2-yl)amino)benzamide]
6 | 135 nM | >10000 nM | CC(C)[C@@H](COc1ccc(-c2ccc(C(F)(F)F)cc2Cl)c(Cl)c1)Nc1ccc(C(=O)NC[C@@H](O)C(=O)O)cc1 [Compound 3-2, (R)-3-(4-(((S)-1-((2,2′-dichloro-4′-(trifluoromethyl)-[1,1′-biphenyl]-4-yl)oxy)-3-methylbutan-2-yl)amino)benzamido)-2-hydroxypropanoic Acid]
7 | 86 nM | 1250 nM | CC(C)[C@@H](COc1ccc(-c2ccc(C(F)(F)F)cc2Cl)c(Cl)c1)Nc1ccc(C(=O)NCc2nnn[nH]2)cc1 [Compound 3-3, (S)—N-((1H-tetrazol-5-yl)methyl)-4-((1-((2,2′-dichloro-4′-(trifluoromethyl)-[1,1′-biphenyl]-4-yl)oxy)-3-methylbutan-2-yl)amino)benzamide]
8 | 17 nM | 313.6 nM | CC(C)[C@@H](COc1ccc(-c2ccc(C(F)(F)F)cc2Cl)c(Cl)c1)Nc1ccc(C(=O)NCCC(=O)O)cc1 [Compound 3-4, (S)-3-(4-((1-((2,2′-dichloro-4′-(trifluoromethyl)-[1,1′-biphenyl]-4-yl)oxy)-3-methylbutan-2-yl)amino)benzamido)propanoic Acid]
9 | 117 nM | 1863 nM | CC(C)[C@@H](COc1ccc(-c2cc3ccccc3o2)c(Cl)c1)Nc1ccc(C(=O)NCc2nnn[nH]2)cc1 [Compound 3-5, (S)—N-((1H-tetrazol-5-yl)methyl)-4-((1-(4-(benzofuran-2-yl)-3-chlorophenoxy)-3-methylbutan-2-yl)amino)benzamide]
10 | 184 nM | 9291 nM | CC(C)[C@@H](COc1ccc(-c2cc3ccccc3o2)c(Cl)c1)Nc1ccc(C(=O)NC[C@@H](O)C(=O)O)cc1 [Compound 3-6, (R)-3-(4-(((S)-1-(4-(benzofuran-2-yl)-3-chlorophenoxy)-3-methylbutan-2-yl)amino)benzamido)-2-hydroxypropanoic Acid]
11 | 103 nM | 363.5 nM | CC(C)[C@@H](COc1ccc(-c2cc3ccccc3o2)c(Cl)c1)Nc1ccc(C(=O)NCCC(=O)O)cc1 [Compound 3-7, (S)-3-(4-((1-(4-(benzofuran-2-yl)-3-chlorophenoxy)-3-methylbutan-2-yl)amino)benzamido)propanoic Acid]
12 | 26 nM | 35 nM | CCCC[C@@H](COc1ccc(-c2ccc(C(F)(F)F)cc2Cl)c(Cl)c1)Nc1ccc(C(=O)NCCC(=O)O)cc1 [Compound 3-8, (S)-3-(4-((1-((2,2′-dichloro-4′-(trifluoromethyl)-[1,1′-biphenyl]-4-yl)oxy)hexan-2-yl)amino)benzamido)propanoic Acid]
13 | 37 nM | 528.1 nM | CCCC[C@@H](COc1ccc(-c2ccc(C(F)(F)F)cc2Cl)c(Cl)c1)Nc1ccc(C(=O)NCc2nnn[nH]2)cc1 [Compound 3-9, (S)—N-((1H-tetrazol-5-yl)methyl)-4-((1-((2,2′-dichloro-4′-(trifluoromethyl)-[1,1′-biphenyl]-4-yl)oxy)hexan-2-yl)amino)benzamide]
14 | 20 nM | 88.7 nM | CCCC[C@@H](COc1ccc(-c2cc3ccccc3o2)c(Cl)c1)Nc1ccc(C(=O)NCCC(=O)O)cc1 [Compound 3-10, (S)-3-(4-((1-(4-(benzofuran-2-yl)-3-chlorophenoxy)hexan-2-yl)amino)benzamido)propanoic Acid]
15 | 149 nM | 672.8 nM | CCCC[C@@H](COc1ccc(-c2cc3ccccc3o2)c(Cl)c1)Nc1ccc(C(=O)NCc2nnn[nH]2)cc1 [Compound 3-11, (S)—N-((1H-tetrazol-5-yl)methyl)-4-((1-(4-(benzofuran-2-yl)-3-chlorophenoxy)hexan-2-yl)amino)benzamide]
16 | 30 nM | 28.1 nM | CCCC[C@@H](COc1ccc(-c2ccc(Cl)cc2Cl)c(Cl)c1)Nc1ccc(C(=O)NCCC(=O)O)cc1 [Compound 3-12, (S)-3-(4-((1-((2,2′,4′-trichloro-[1,1′-biphenyl]-4-yl)oxy)hexan-2-yl)amino)benzamido)propanoic Acid]
17 | 92 nM | 279.9 nM | CCCC[C@@H](COc1ccc(-c2ccc(Cl)cc2Cl)c(Cl)c1)Nc1ccc(C(=O)NCc2nnn[nH]2)cc1 [Compound 3-13, (S)—N-((1H-tetrazol-5-yl)methyl)-4-((1-((2,2′,4′-trichloro-[1,1′-biphenyl]-4-yl)oxy)hexan-2-yl)amino)benzamide]
18 | 58 nM | 115.4 nM | CC(C)[C@@H](COc1cc(Cl)c(-c2cc3ccccc3o2)cc1Cl)Nc1ccc(C(=O)NCCC(=O)O)cc1 [Compound 3-14, (S)-3-(4-((1-(4-(benzofuran-2-yl)-2,5-dichlorophenoxy)-3-methylbutan-2-yl)amino)benzamido)propanoic Acid]
19 | 51 nM | 367.7 nM | CCCC[C@@H](COc1ccc(-c2ccc(C(F)(F)F)cc2)c(Cl)c1)Nc1ccc(C(=O)NCCC(=O)O)cc1 [Compound 3-16, (S)-3-(4-((1-((2-chloro-4′-(trifluoromethyl)-[1,1′-biphenyl]-4-yl)oxy)hexan-2-yl)amino)benzamido)propanoic Acid]
20 | 111 nM | 105 nM | CCCC[C@@H](COc1ccc(-c2ccc(C(F)(F)F)cc2)c(Cl)c1)Nc1ccc(C(=O)NCc2nnn[nH]2)cc1 [Compound 3-17, (S)—N-((1H-tetrazol-5-yl)methyl)-4-((1-((2-chloro-4′-(trifluoromethyl)-[1,1′-biphenyl]-4-yl)oxy)hexan-2-yl)amino)benzamide]
21 | 836 nM | >30000 nM | CC(C)[C@@H](COc1ccc(-c2cc3ccccc3o2)c(Cl)c1)Nc1ccc(C(=O)NCCS(=O)(=O)O)cc1 [Compound 3-18, (S)-2-(4-((1-(4-(benzofuran-2-yl)-3-chlorophenoxy)-3-methylbutan-2-yl)amino)benzamido)ethane-1-sulfonic Acid]
22 | 64 nM | 130 nM | CC[C@H](C)[C@@H](COc1cc(Cl)c(-c2cc3ccccc3o2)cc1Cl)Nc1ccc(C(=O)NCCC(=O)O)cc1 [Compound 3-19, 3-(4-(((2S,3S)-1-(4-(benzofuran-2-yl)-2,5-dichlorophenoxy)-3-methylpentan-2-yl)amino)benzamido)propanoic Acid]
23 | 73 nM | 44 nM | CC[C@H](C)[C@@H](COc1cc(Cl)c(-c2ccc(C(F)(F)F)cc2Cl)cc1Cl)Nc1ccc(C(=O)NCCC(=O)O)cc1 [Compound 3-20, 3-(4-(((2S,3S)-3-methyl-1-((2,2′,5-trichloro-4′-(trifluoromethyl)-[1,1′-biphenyl]-4-yl)oxy)pentan-2-yl)amino)benzamido)propanoic Acid]
24 | 295 nM | 653 nM | CC[C@H](C)[C@@H](COc1cc(Cl)c(-c2ccc(C(F)(F)F)cc2F)cc1Cl)Nc1ccc(C(=O)NCCC(=O)O)cc1 [Compound 3-21]
25 | 83 nM | 54 nM | CCCC[C@@H](COc1ccc(-c2ccc(C(F)(F)F)cc2F)c(Cl)c1)Nc1ccc(C(=O)NCCC(=O)O)cc1 [Compound 3-22, (S)-3-(4-((1-((2-chloro-2′-fluoro-4′-(trifluoromethyl)-[1,1′-biphenyl]-4-yl)oxy)hexan-2-yl)amino)benzamido)propanoic Acid]
26 | 156 nM | 293 nM | CC(C)(C)[C@@H](COc1ccc(-c2cc3ccccc3o2)c(Cl)c1)Nc1ccc(C(=O)NCCC(=O)O)cc1 [Compound 3-23, (S)-3-(4-((1-(4-(benzofuran-2-yl)-3-chlorophenoxy)-3,3-dimethylbutan-2-yl)amino)benzamido)propanoic Acid]
